System: anesthetized open-chest dogs
Experiment: Hemodynamics of anesthetized open-chest dogs, intravenous infusion
Assay type: in vivo, mongrel dogs
Description: The animals were anesthetized by intravenous injection of 30 mg/kg sodium pentobarbital, tracheally intubated, and mechanically ventilated with positive air pressure. Left thoracotomy was performed through the fourth intercostal space and the heart was suspended in a pericardial cradle, the aortic root was isolated and a probe of blood flow meter (12 or 14 mm in diameter) was fixed to measure the aortic blood flow as a representation of cardiac output (CO), the circumflex branch of left coronary artery was isolated and a probe of blood flow meter (2 or 2.5 mm in diameter) was fixed to measure the coronary blood flow (CBF). A polyethylene catheter filled with heparin physiological saline was inserted through cardiac apex into the left ventricle to measure the left ventricular pressure (LVP) and left ventricular end-diastolic pressure (LVEDP), Peak positive and peak negative first derivatives of the LVP (+ LVdp/dt and − LVdp/dt) were calculated with the Acknowledge software. The systolic blood pressure (SBP), diastolic blood pressure (DBP) and mean arterial pressure (MAP) were measured by polyethylene catheter via the femoral artery, ECG □ was measured by a AC-601G ECG amplifier. The above-mentioned analog signal was input into a data acquisition workstation (MP100, BIOPAC Systems, USA) to a computer running Acknowledge (version 3.7.1).
After surgery, various indexes before administration were recorded until the indexes were stable, and then intravenous infusion administration was conducted. Thirty dogs were divided into five groups (six dogs in each group), the experiment groups were given 0.15, 0.3, 0.6 mg/kg of ASP-[…] respectively, the normal control group was given 1 ml/kg of solvent, and the positive control group was given 0.3 mg/kg of astragaloside IV. The delivery volumes were 15 ml for each dog was and the delivery velocity was 1 ml/min. The indexes were recorded at 5, 10, 15, 20, 30, 45, 60, 90 and 120 mins after drug administration. At the end of experiment, the hearts were excised and weighted. The myocardial blood flow for per hectogram (CF), coronary resistance (CR), cardiac index (CI), left ventricular work (LVW) and total peripheral resistance (TPR) were calculated according to the following formulae: CF=CBF×[…]/heart weight CR=MAP/CF CI=CO/0.11×(body weight)^2/3 LVW=CO×(MAP−5)×1.052×0.0136 TPR=MAP×79.92/CO
Data are expressed as mean±SD ( x±s), the paired t-test was used to compare the significance between before and after administration, the unpaired t-test was adopted for comparison between groups.

[1] = 0.15 mg/kg iv, 90 min after administration
[2] = 0.15 mg/kg iv, 120 min after administration
[3] = 0.15 mg/kg iv, before administration
[4] = 0.3 mg/kg iv, 5 min after administration
[5] = 0.3 mg/kg iv, 10 min after administration
[6] = 0.3 mg/kg iv, 15 min after administration
[7] = 0.3 mg/kg iv, 20 min after administration
[8] = 0.3 mg/kg iv, 30 min after administration

CC(C)(O)[C@@H]1CC[C@](C)([C@H]2[C@@H](O)C[C@@]3(C)C4C[C@H](OC5OC(CO)C(O)C(O)C5O)C5C(C)(C)[C@@H](O)CC[C@@]56C[C@@]46CC[C@]23C)O1 (stereo partly drawn) [CMG, Cycloastragenol-6-O-β-D-glucoside]
CO change vs before administration [1]: (−0.15 ± 0.24) L/min | CR [1]: 1.36 ± 0.37 mmHg/ml/min/100 g | CR change vs before administration [1]: (0.00 ± 0.24) mmHg/ml/min/100 g | LVEDP [1]: 1.4 ± 2.4 mmHg | LVEDP change vs before administration [1]: (−0.40 ± 0.43) mmHg | LVP [1]: 101 ± 18 mmHg | LVP change vs before administration [1]: (−3.5 ± 7.6) mmHg | LVW [1]: 0.96 ± 0.24 kg · m | LVW change vs before administration [1]: (−0.16 ± 0.34) kg · m | TPR [1]: 5576 ± 2153 dyn · s/cm^5 | TPR change vs before administration [1]: (426 ± 770) dyn · s/cm^5 | dp/dt [1]: 1121 ± 412 mmHg/s | dp/dt change vs before administration [1]: (−28 ± 90) mmHg/s | −dp/dt [1]: −857 ± 243 mmHg/s | −dp/dt change vs before administration [1]: (31 ± 128) mmHg/s | CF [2]: 56.5 ± 16.6 ml/min/100 g | CF change vs before administration [2]: (−1.2 ± 13.7) ml/min/100 g | CI [2]: 1.79 ± 0.37 L/min/m^2 | CI change vs before administration [2]: (−0.29 ± 0.45) L/min/m^2 | CO [2]: 1.03 ± 0.19 L/min | CO change vs before administration [2]: (−0.17 ± 0.28) L/min | CR [2]: 1.35 ± 0.44 mmHg/ml/min/100 g | CR change vs before administration [2]: (−0.01 ± 0.25) mmHg/ml/min/100 g | LVEDP [2]: 1.6 ± 2.3 mmHg | LVEDP change vs before administration [2]: (−0.15 ± 0.44) mmHg | LVP [2]: 103 ± 22 mmHg | LVP change vs before administration [2]: (−1.8 ± 8.1) mmHg | LVW [2]: 0.99 ± 0.36 kg · m | LVW change vs before administration [2]: (−0.13 ± 0.37) kg · m | TPR [2]: 5734 ± 1774 dyn · s/cm^5 | TPR change vs before administration [2]: (584 ± 1030) dyn · s/cm^5 | dp/dt [2]: 1138 ± 387 mmHg/s | dp/dt change vs before administration [2]: (−11 ± 92) mmHg/s | −dp/dt [2]: −897 ± 263 mmHg/s | −dp/dt change vs before administration [2]: (−9 ± 176) mmHg/s | CF [3]: 57.7 ± 24.1 ml/min/100 g | CI [3]: 2.08 ± 0.63 L/min/m^2 | CO [3]: 1.21 ± 0.38 L/min | CR [3]: 1.35 ± 0.44 mmHg/ml/min/100 g | LVEDP [3]: 1.8 ± 2.2 mmHg | LVP [3]: 105 ± 22 mmHg | LVW [3]: 1.12 ± 0.42 kg · m | TPR [3]: 5150 ± 2321 dyn · s/cm^5 | dp/dt [3]: 1150 ± 391 mmHg/s | −dp/dt [3]: −888 ± 310 mmHg/s | ±LVdp/dtmax (0.15 mg/kg iv, within 120 min): no significant change | LVEDP maximum decrease (0.3 mg/kg iv): 1.5±0.8 mmHg | CF [4]: 51.7 ± 20.7 ml/min/100 g | CF change vs before administration [4]: (1.5 ± 5.3) ml/min/100 g | CI [4]: 2.09 ± 0.86 L/min/m^2 | CI change vs before administration [4]: (0.11 ± 0.16) L/min/m^2 | CO [4]: 1.16 ± 0.39 L/min | CO change vs before administration [4]: (0.06 ± 0.09) L/min | CR [4]: 1.57 ± 0.74 mmHg/ml/min/100 g | CR change vs before administration [4]: (0.04 ± 0.17) mmHg/ml/min/100 g | LVEDP [4]: 1.3 ± 2.5 mmHg | LVEDP change vs before administration [4]: (−0.39 ± 0.38) mmHg | LVP [4]: 107 ± 21 mmHg | LVP change vs before administration [4]: (4.1 ± 4.9) mmHg | LVW [4]: 1.12 ± 0.49 kg · m | LVW change vs before administration [4]: (0.10 ± 0.07) kg · m | TPR [4]: 5248 ± 1878 dyn · s/cm^5 | TPR change vs before administration [4]: (−52 ± 829) dyn · s/cm^5 | dp/dt [4]: 1308 ± 448 mmHg/s | dp/dt change vs before administration [4]: (47 ± 34) mmHg/s | −dp/dt [4]: −958 ± 313 mmHg/s | −dp/dt change vs before administration [4]: (−37 ± 44) mmHg/s | CF [5]: 53.5 ± 21.1 ml/min/100 g | CF change vs before administration [5]: (3.3 ± 3.2) ml/min/100 g | CI [5]: 1.96 ± 0.85 L/min/m^2 | CI change vs before administration [5]: (−0.03 ± 0.23) L/min/m^2 | CO [5]: 1.09 ± 0.39 L/min | CO change vs before administration [5]: (−0.01 ± 0.14) L/min | CR [5]: 1.50 ± 0.71 mmHg/ml/min/100 g | CR change vs before administration [5]: (−0.03 ± 0.12) mmHg/ml/min/100 g | LVEDP [5]: 1 ± 2.4 mmHg | LVEDP change vs before administration [5]: (−0.75 ± 0.34) mmHg | LVP [5]: 106 ± 22 mmHg | LVP change vs before administration [5]: (2.3 ± 6.9) mmHg | LVW [5]: 1.02 ± 0.44 kg · m | LVW change vs before administration [5]: (0.00 ± 0.15) kg · m | TPR [5]: 5683 ± 2354 dyn · s/cm^5 | TPR change vs before administration [5]: (384 ± 1293) dyn · s/cm^5 | dp/dt [5]: 1358 ± 444 mmHg/s | dp/dt change vs before administration [5]: (97 ± 68) mmHg/s | −dp/dt [5]: −925 ± 299 mmHg/s | −dp/dt change vs before administration [5]: (−4 ± 80) mmHg/s | CF [6]: 51.3 ± 21.1 ml/min/100 g | CF change vs before administration [6]: (1.1 ± 4.2) ml/min/100 g | CI [6]: 1.98 ± 0.84 L/min/m^2 | CI change vs before administration [6]: (−0.01 ± 0.28) L/min/m^2 | CO [6]: 1.10 ± 0.38 L/min | CO change vs before administration [6]: (0.00 ± 0.17) L/min | CR [6]: 1.56 ± 0.76 mmHg/ml/min/100 g | CR change vs before administration [6]: (0.02 ± 0.15) mmHg/ml/min/100 g | LVEDP [6]: 0.7 ± 2.6 mmHg | LVEDP change vs before administration [6]: (−1.06 ± 0.54) mmHg | LVP [6]: 106 ± 20 mmHg | LVP change vs before administration [6]: (2.3 ± 5.4) mmHg | LVW [6]: 1.02 ± 0.44 kg · m | LVW change vs before administration [6]: (0.00 ± 0.16) kg · m | TPR [6]: 5535 ± 2356 dyn · s/cm^5 | TPR change vs before administration [6]: (236 ± 1386) dyn · s/cm^5 | dp/dt [6]: 1367 ± 470 mmHg/s | dp/dt change vs before administration [6]: (106 ± 54) mmHg/s | −dp/dt [6]: −947 ± 308 mmHg/s | −dp/dt change vs before administration [6]: (−25 ± 74) mmHg/s | CF [7]: 51.4 ± 19.2 ml/min/100 g | CF change vs before administration [7]: (1.2 ± 4.0) ml/min/100 g | CI [7]: 1.94 ± 0.81 L/min/m^2 | CI change vs before administration [7]: (−0.04 ± 0.11) L/min/m^2 | CO [7]: 1.08 ± 0.36 L/min | CO change vs before administration [7]: (−0.02 ± 0.06) L/min | CR [7]: 1.51 ± 0.68 mmHg/ml/min/100 g | CR change vs before administration [7]: (−0.02 ± 0.14) mmHg/ml/min/100 g | LVEDP [7]: 0.6 ± 2.5 mmHg | LVEDP change vs before administration [7]: (−1.16 ± 0.89) mmHg | LVP [7]: 104 ± 23 mmHg | LVP change vs before administration [7]: (1.2 ± 6.9) mmHg | LVW [7]: 1.02 ± 0.47 kg · m | LVW change vs before administration [7]: (0.00 ± 0.05) kg · m | TPR [7]: 5513 ± 1980 dyn · s/cm^5 | TPR change vs before administration [7]: (214 ± 869) dyn · s/cm^5 | dp/dt [7]: 1348 ± 487 mmHg/s | dp/dt change vs before administration [7]: (87 ± 77) mmHg/s | −dp/dt [7]: −937 ± 289 mmHg/s | −dp/dt change vs before administration [7]: (−16 ± 91) mmHg/s | CF [8]: 51.4 ± 24.5 ml/min/100 g | CF change vs before administration [8]: (1.2 ± 6.2) ml/min/100 g | CI [8]: 1.92 ± 0.78 L/min/m^2 | CI change vs before administration [8]: (−0.06 ± 0.30) L/min/m^2 | CO [8]: 1.07 ± 0.36 L/min | CO change vs before administration [8]: (−0.03 ± 0.18) L/min | CR [8]: 1.51 ± 0.74 mmHg/ml/min/100 g | CR change vs before administration [8]: (−0.02 ± 0.09) mmHg/ml/min/100 g | LVEDP [8]: 0.6 ± 2.4 mmHg | LVEDP change vs before administration [8]: (−1.11 ± 0.87) mmHg | LVP [8]: 102 ± 23 mmHg | LVP change vs before administration [8]: (−1.3 ± 4.7) mmHg | LVW [8]: 0.97 ± 0.46 kg · m | LVW change vs before administration [8]: (−0.05 ± 0.13) kg · m | TPR [8]: 5318 ± 2153 dyn · s/cm^5 | TPR change vs before administration [8]: (19 ± 1444) dyn · s/cm^5 | dp/dt [8]: 1304 ± 459 mmHg/s | dp/dt change vs before administration [8]: (43 ± 100) mmHg/s | −dp/dt [8]: −885 ± 293 mmHg/s

— US8835134B2, “Cycloastragenol monoglucoside, preparation, pharmaceutical composition and application thereof” (Tianjin Institute of Pharmaceutical Research, priority 2007, dated 2014)
